From patent publication US20090246269A1, “IDENTIFICATION AND USE OF GPRC VARIANTS IN THE TREATMENT AND DIAGNOSIS OF PARKINSON'S DISEASE” (priority 2006, published 2009)

Molecular target: T1, BDKRB2 reference form (Homo sapiens, UniProt P30411)
T1 construct: expressed in transfected cells; host or cells: CHO-K1
T1 sequence (P30411 1-391): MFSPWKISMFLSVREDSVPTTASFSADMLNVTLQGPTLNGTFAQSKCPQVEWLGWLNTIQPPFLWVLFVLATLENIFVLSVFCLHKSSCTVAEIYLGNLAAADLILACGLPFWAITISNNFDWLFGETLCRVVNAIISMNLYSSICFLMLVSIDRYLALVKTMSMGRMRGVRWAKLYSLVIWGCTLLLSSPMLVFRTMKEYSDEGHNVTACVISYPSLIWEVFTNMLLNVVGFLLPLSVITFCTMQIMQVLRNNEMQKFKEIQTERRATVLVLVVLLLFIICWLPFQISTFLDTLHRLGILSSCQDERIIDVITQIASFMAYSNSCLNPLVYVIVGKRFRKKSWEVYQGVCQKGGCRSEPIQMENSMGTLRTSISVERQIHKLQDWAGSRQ
Assay: NFAT-Firefly luciferase reporter assay (Dual-Glo) of BDKRB2 dependent signaling in transfected CHO-K1 cells
Format: cell-based
Conditions: 8 hour time-point
Method: FIG. 10: Effect of bradyzide titration on the activity of BDKRB2 reference form. CHO-K1 cells were transfected with pNFAT—Firefly Luciferase reporter, BDKBR2-pcDNA3.1 and pGL4.73 [hRenilla Luciferase/SV40]. 18 hrs after transfection, cells were treated with bradyzide at indicated concentration in 10% FBS medium for 8, 24 and 48 hrs. The Firefly luciferase reporter activity and the renilla luciferase activity were measured sequentially. BDKRB2 activity was estimated by calculating the Ratios of Firefly and Renilla Luciferase Units (RLU).
The Promega Dual-Glo™ Assay system was used to indirectly monitor BDKRB2 dependent signaling.

CN(C)CCN(C)CCNC(=O)[C@@H]1CCCN1S(=O)(=O)c1ccc(NNC(=S)NC(c2ccccc2)c2ccccc2)c([N+](=O)[O-])c1 [bradyzide]
inhibition of serum induced activity in luciferase reporter assay: inhibited
reduction of serum-induced basal BDKRB2 activity (bradyzide titration, 10% FBS medium): about 40%
